Biological target: T1, IDO (Homo sapiens, UniProt P14902)
T1 construct: endogenous in cells; host or cells: HeLa cells treated with IFNγ
Assay: Hela cell-based IDO inhibitory activity test (IFNγ added)
Conditions: Hela cells with IFNγ, 48 hours incubation, OD 480 nm
Protocol: 2. Hela Cell-Based IDO Inhibitory Activity Test Method
The first step: cell plating. Prepare complete medium and mix well. Cell lines that are in good growth state are selected. Remove the cell culture flask from the incubator and check the cell name, media type and cell generation number on the bottle. The medium was discarded, digested with trypsin, and after digestion, the cells were neutralized with serum-containing medium, and the cells were blown to cause the cells to fall off. Pipette the cell suspension into a centrifuge tube and centrifuge at a speed of 800-1000 for 3-5 minutes. Aspirate the cell supernatant from the centrifuge tube. Add an appropriate volume of medium to the tube and gently blister to resuspend the cells. Count using a Vi-Cell XR cytometer. Adjust the cell suspension to the appropriate concentration. The cell suspension was added to a white-well 96-well plate at 80 μl/well according to the schematic below. The second step: preparation and addition of the compound. Compounds were formulated in DMSO at 600 μM and the compounds were diluted in DMSO according to a multiple of the following table to give 6 concentration gradients of the compound. The 200× compound prepared in DMSO was formulated into a 10× dilution solution in proportion to the corresponding cell culture medium. After 24 hours of cell seeding, 10 μL of 10× corresponding compound dilution and 10 μL of 10×IFNγ were added to each well. Incubate for 48 hours in a 37° C. incubator. The third step: detection and analysis. Cell morphology was observed under an inverted microscope. 80 μL of the supernatant was added to a 3894 plate, 10 μL of 6.1 N trichloroacetic acid was added to each well, shaken for 2 minutes, and placed in a 50-degree incubator for 30 minutes. Centrifuge, 2500 rpm for 10 minutes.
Take 70 μL of the supernatant and transfer to a 3635 UV plate, add 70 μL of the reaction solution, and shake for 2 minutes to make the reaction uniform. Use EnSpire (PE) to detect data with an OD of 480 nm. The cell culture plate 3903 was allowed to stand at room temperature for 30 minutes. 100 μL/well of the cell activity detecting reagent was added to the culture plate. Mix on a shaker for 2 minutes to induce cell lysis. The 96-well plate was allowed to stand at room temperature for 10 minutes to stabilize the luminescence signal. Paste the white base film on the bottom of the plate and tested with Flexstation3 plate (the relevant setting is: Illumination, integration time 500 ms). Record the experimental results obtained from the analysis.
The IC50 value is expressed in the following manner: […]

T1 sequence (P14902 whole entry): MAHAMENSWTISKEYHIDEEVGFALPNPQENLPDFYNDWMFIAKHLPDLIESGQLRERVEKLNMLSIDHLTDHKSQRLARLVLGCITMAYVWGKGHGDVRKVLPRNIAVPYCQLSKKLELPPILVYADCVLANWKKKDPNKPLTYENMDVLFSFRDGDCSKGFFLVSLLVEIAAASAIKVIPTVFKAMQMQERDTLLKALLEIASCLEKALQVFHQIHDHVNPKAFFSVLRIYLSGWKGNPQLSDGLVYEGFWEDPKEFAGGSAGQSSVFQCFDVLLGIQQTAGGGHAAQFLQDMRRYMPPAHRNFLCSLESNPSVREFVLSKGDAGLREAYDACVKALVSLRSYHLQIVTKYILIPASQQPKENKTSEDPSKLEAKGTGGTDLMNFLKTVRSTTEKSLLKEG

SMILES	IC50 [nM]
O=C(Nc1ccc(Cl)cc1)C1CC12CCC(c1ccnc3ccc(F)cc13)CC2 (stereo not drawn) [Compound 56]	5 to 25
N#Cc1ccc(NC(=O)C2([C@H]3C[C@H]4C[C@@H](c5ccnc6ccc(F)cc56)C[C@H]4C3)CC2)nc1 [Compound 98]	≤ 5
O=C(Nc1ccc(Cl)cn1)/C(F)=C1/C[C@@H]2C[C@H](c3ccnc4ccc(F)cc34)C[C@@H]2C1 [Compound 105]	> 100
O=C(C[C@H]1C[C@H]2CC(c3ccnc4ccc(F)cc34)C[C@H]2C1)Nc1ccc2[nH]ncc2c1 (stereo partly drawn) [Compound 14]	> 100
N#Cc1ccc(NC(=O)C[C@@H]2C[C@@H]3CC(c4ccnc5ccc(F)cc45)=C[C@@H]3C2)cn1 (relative stereo) [Compound 101]	5 to 25
C#Cc1ccc(NC(=O)C[C@@H]2C[C@@H]3CC(c4ccnc5ccc(F)cc45)=C[C@@H]3C2)cn1 [Compound 64]	≤ 5
C#Cc1ccc(NC(=O)C[C@@H]2C[C@@H]3CC(c4ccnc5ccc(F)cc45)=C[C@@H]3C2)nc1 [Compound 63]	≤ 5
C#Cc1ccc(NC(=O)C[C@@H]2C[C@H]3CC(c4ccnc5ccc(F)cc45)C[C@H]3C2)nc1 (stereo partly drawn) [Compound 25]	≤ 5
CC(C(=O)Nc1ccc(Cl)nc1)[C@H]1C[C@]2(C)C[C@H](c3ccnc4ccc(F)cc34)C[C@]2(C)C1 (stereo partly drawn) [Compound 43]	25 to 100
O=C(C[C@H]1C[C@@H]2CC(c3ccncc3F)=C[C@@H]2C1)Nc1ccc(Cl)cc1 [Compound 54]	> 100
CC(C(=O)Nc1nncs1)[C@H]1C[C@H]2C[C@@H](c3ccnc4ccc(F)cc34)C[C@H]2C1 (stereo partly drawn) [Compound 31]	> 100
O=C(C[C@]1(O)C[C@H]2C[C@@H](c3ccnc4ccc(F)cc34)C[C@H]2C1)Nc1ccc(Cl)cc1 [Compound 58]	5 to 25
Cn1nc(C2=C[C@@H]3C[C@H](CC(=O)Nc4ccc(Cl)cc4)C[C@@H]3C2)c2ccccc21 [Compound 55]	> 100
C#Cc1ccc(NC(=O)C[C@@H]2C[C@H]3CC(c4ccnc5ccc(F)cc45)C[C@H]3C2)cn1 (stereo partly drawn) [Compound 24]	≤ 5
C#Cc1ccc(NC(=O)C[C@@H]2C[C@H]3CC(c4ccnc5ccc(F)cc45)C[C@H]3C2)cc1 (stereo partly drawn) [Compound 20]	≤ 5
O=C(C[C@@H]1C[C@H]2CC(c3ccnc4ccc(F)cc34)C[C@H]2C1)Nc1ccc(Cl)cn1 (stereo partly drawn) [Compound 21]	5 to 25
CC(C(=O)Nc1ccc(C(F)(F)F)nc1)[C@H]1C[C@H]2C[C@@H](c3ccnc4ccc(F)cc34)C[C@H]2C1 (stereo partly drawn) [Compound 80]	≤ 5

SMILES	IC50 [nM]
CC#Cc1ccc(NC(=O)C(C)(C)[C@H]2C[C@H]3C[C@@H](c4ccnc5ccc(F)cc45)C[C@H]3C2)cn1 [Compound 91]	≤ 5
CC(C(=O)Nc1ccc(I)cn1)C1C[C@H]2CC(c3ccnc4ccc(F)cc34)C[C@H]2C1 (stereo partly drawn) [Compound 76]	≤ 5
Cn1ncc2cc(NC(=O)C[C@H]3C[C@H]4CC(c5ccnc6ccc(F)cc56)C[C@H]4C3)ccc21 (stereo partly drawn) [Compound 15]	> 100
O=C(C[C@@H]1C[C@@H]2C[C@H](c3ccnc4ccc(F)cc34)C[C@@H]2C1)Nc1ccc2c(c1)OCC1COCCN21 (stereo partly drawn) [Compound 13]	> 100
CC#Cc1ccc(NC(=O)C(C)[C@H]2C[C@H]3C[C@@H](c4ccnc5ccc(F)cc45)C[C@H]3C2)cn1 (stereo partly drawn) [Compound 83]	> 100
CC(C(=O)Nc1ccc(C#N)cc1)[C@H]1C[C@H]2C[C@@H](c3ccnc4ccc(F)cc34)C[C@H]2C1 (stereo partly drawn) [Compound 36]	≤ 5
C#Cc1ccc(NC(=O)[C@H](C)[C@@H]2C[C@H]3CC(c4ccnc5ccc(F)cc45)C[C@H]3C2)nc1 (stereo partly drawn) [Compound 75]	5 to 25
CC(C(=O)Nc1ccc(F)c(Br)c1)[C@H]1C[C@H]2C[C@@H](c3ccnc4ccc(F)cc34)C[C@H]2C1 (stereo partly drawn) [Compound 33]	25 to 100
CC(C(=O)Nc1cncc(Cl)c1)[C@H]1C[C@H]2C[C@@H](c3ccnc4ccc(F)cc34)C[C@H]2C1 (stereo partly drawn) [Compound 35]	5 to 25
CC(C)(C(=O)Nc1ccc(Cl)cn1)N1C[C@H]2C[C@@H](c3ccnc4ccc(F)cc34)C[C@H]2C1 [Compound 100]	> 100
CC(C(=O)Nc1cnc(N)nc1)[C@H]1C[C@H]2C[C@@H](c3ccnc4ccc(F)cc34)C[C@H]2C1 (stereo partly drawn) [Compound 30]	> 100
COC(=O)c1ccc(NC(=O)C(C)[C@H]2C[C@H]3C[C@@H](c4ccnc5ccc(F)cc45)C[C@H]3C2)cc1 (stereo partly drawn) [Compound 8]	5 to 25
CC(C(=O)Nc1ccc(C#CC(C)(C)O)cn1)[C@H]1C[C@H]2C[C@@H](c3ccnc4ccc(F)cc34)C[C@H]2C1 (stereo partly drawn) [Compound 77]	≤ 5
N#Cc1ccc(NC(=O)C[C@@H]2C[C@@H]3C[C@H](c4ccnc5ccc(F)cc45)C[C@@H]3C2)cn1 [Compound 102]	≤ 5
O=C(C[C@@H]1C[C@@H]2CC(c3ccnc4ccc(F)cc34)=C[C@@H]2C1)Nc1ccc(Cl)nc1 (racemic) [Compound 62]	≤ 5
CC(C(=O)Nc1ccc(Cl)cc1)[C@H]1C[C@]2(C)C[C@H](c3ccnc4ccc(F)cc34)C[C@]2(C)C1 (stereo partly drawn) [Compound 41]	5 to 25

Next, values leading:

IC50 [nM]	SMILES
25 to 100	O=C(CN1C[C@H]2C[C@@H](c3ccnc4ccc(F)cc34)C[C@H]2C1)Nc1ccc(Cl)cc1 [Compound 46]
25 to 100	O=C(Nc1ccc(Cl)cn1)C(F)(F)[C@H]1C[C@H]2C[C@@H](c3ccnc4ccc(F)cc34)C[C@H]2C1 [Compound 104]
5 to 25	O=C(Nc1ccc(Cl)cn1)C1C[C@@H]2C[C@H](c3ccnc4ccc(F)cc34)C[C@@H]2C1 (single isomer, unassigned) [Compound 108]
≤ 5	N#Cc1ccc(NC(=O)C[C@@H]2C[C@@H]3CC(c4ccnc5ccc(F)cc45)=C[C@@H]3C2)nc1 (racemic) [Compound 69]
≤ 5	CC(C)(C(=O)Nc1ccc(Cl)cc1)[C@H]1C[C@H]2C[C@@H](c3ccnc4ccc(F)cc34)C[C@H]2C1 [Compound 60]
5 to 25	O=C(C[C@H]1C[C@H]2CC(c3ccnc4ccc(F)cc34)C[C@H]2C1)Nc1ccc(Cl)cn1 (stereo partly drawn) [Compound 17]
> 100	CC(C(=O)Nc1ccc(-c2cnn(C3CC3)c2)nc1)[C@H]1C[C@H]2C[C@@H](c3ccnc4ccc(F)cc34)C[C@H]2C1 (stereo partly drawn) [Compound 32]
5 to 25	O=C(C[C@@H]1C[C@@H]2C[C@@]3(c4ccnc5ccc(F)cc45)O[C@H]3[C@@H]2C1)Nc1ccc(Cl)cc1 [Compound 49]
5 to 25	N#Cc1ccc(NC(=O)C[C@H]2C[C@@H]3C[C@H](c4ccnc5ccc(F)cc45)C[C@@H]3C2)cn1 [Compound 71]
25 to 100	CC(C(=O)Nc1ccc(C#CC(C)(C)O)cn1)[C@@H]1C[C@H]2C[C@@H](c3ccnc4ccc(F)cc34)C[C@H]2C1 (stereo partly drawn) [Compound 78]
> 100	CC(C)(O)C#Cc1ccc(NC(=O)C[C@@H]2C[C@H]3CC(c4ccnc5ccc(F)cc45)C[C@H]3C2)nc1 (stereo partly drawn) [Compound 103]
> 100	CC#Cc1ccc(NC(=O)C(C)[C@H]2C[C@H]3C[C@@H](c4ccnc5ccc(F)cc45)C[C@H]3C2)nc1 (stereo partly drawn) [Compound 82]
> 100	O=C(C[C@@H]1C[C@@H]2CC(c3ccncc3F)=C[C@@H]2C1)Nc1ccc(Cl)cc1 [Compound 53]
> 100	O=C(Nc1ccc(Cl)cn1)C1C[C@@H]2C[C@H](c3ccnc4ccc(F)cc34)C[C@@H]2C1 (single isomer, unassigned) [Compound 107]
> 100	CC(C(=O)Nc1ccc(O)nc1)[C@H]1C[C@H]2C[C@@H](c3ccnc4ccc(F)cc34)C[C@H]2C1 (stereo partly drawn) [Compound 28]
